Assay results: US20200347043A1, “MODULATORS OF THE INTEGRATED STRESS PATHWAY” (Calico Life Sciences LLC, priority 2019, published 2020)

Tested on: HEK293T cells carrying the ATF4 luciferase reporter
Assay: ATF4-Luc assay (in vitro model of VWMD)
Format: cell-based, human
Details: Homo sapiens, HEK-293T, 1 μg/mL tunicamycin, 7 hours, One Glo luminescence
Summary of the method: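 Tunicamycin (1 μg/mL) stress with co-added compound for 7 hours in HEK293T cells stably carrying an ATF4 5′-UTR–luciferase reporter. EC50 values come from the luminescent signal (One Glo).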

Row | Structure (SMILES) | EC50 [nM]
1 | O=C(NC12CC(C3=NOC([C@H]4C[C@@H](O)C4)C3)(C1)C2)[C@H]1C[C@@H](O)c2cc(Cl)ccc2O1 (stereo partly drawn) [Compound 227, (2R,4R)-6-chloro-4-hydroxy-N-(3-{5-[cis-3-hydroxycyclobutyl]-4,5-dihydro-1,2-oxazol-3-yl}bicyclo[1.1.1]pentan-1-yl)-3,4-dihydro-2H-1-benzopyran-2-carboxamide] | > 2000
2 | O=C(NC12CC(C3=NOC([C@H]4C[C@@H](O)C4)C3)(C1)C2)[C@@H]1C[C@@H](O)c2cc(Cl)ccc2O1 (stereo partly drawn) [Compound 228, (2S,4R)-6-chloro-4-hydroxy-N-(3-{5-[cis-3-hydroxycyclobutyl]-4,5-dihydro-1,2-oxazol-3-yl}bicyclo[1.1.1]pentan-1-yl)-3,4-dihydro-2H-1-benzopyran-2-carboxamide] | > 2000
3 | O=C(NC12CC(c3nc([C@H]4C[C@@H](OC(F)(F)F)C4)no3)(C1)C2)[C@H]1C[C@@H](O)c2cc(Cl)ccc2O1 [Compound 229, (2R,4R)-6-chloro-4-hydroxy-N-(3-{3-[cis-3-(trifluoromethoxy)cyclobutyl]-1,2,4-oxadiazol-5-yl}bicyclo[1.1.1]pentan-1-yl)-3,4-dihydro-2H-1-benzopyran-2-carboxamide] | 10 to 50
4 | O=C(NC12CC(c3nc(-c4ccc(Cl)c(F)c4)no3)(C1)C2)[C@@H]1C[C@@H](O)c2cc(Cl)ccc2O1 [Compound 230, (2S,4R)-6-chloro-N-{3-[3-(4-chloro-3-fluorophenyl)-1,2,4-oxadiazol-5-yl]bicyclo[1.1.1]pentan-1-yl}-4-hydroxy-3,4-dihydro-2H-1-benzopyran-2-carboxamide] | 50 to 250
5 | O=C(NC12CC(n3cnc(-c4ccc(C(F)(F)F)nc4)c3)(C1)C2)[C@@H]1C[C@@H](O)c2cc(Cl)ccc2O1 [Compound 231, (2S,4R)-6-chloro-4-hydroxy-N-(3-{4-[6-(trifluoromethyl)pyridin-3-yl]-1H-imidazol-1-yl}bicyclo[1.1.1]pentan-1-yl)-3,4-dihydro-2H-1-benzopyran-2-carboxamide] | 10 to 50
6 | O=C(NC12CC(C3=NOC([C@H]4C[C@@H](OC(F)(F)F)C4)C3)(C1)C2)[C@H]1C[C@@H](O)c2cc(Cl)ccc2O1 (stereo partly drawn) [Compound 232, (2R,4R)-6-chloro-4-hydroxy-N-{3-(5-[cis-3-(trifluoromethoxy)cyclobutyl]-4,5-dihydro-1,2-oxazol-3-yl}bicyclo[1.1.1]pentan-1-yl)-3,4-dihydro-2H-1-benzopyran-2-carboxamide] | 50 to 250
7 | O=C(NC12CC(C3=NOC([C@H]4C[C@@H](OC(F)(F)F)C4)C3)(C1)C2)[C@@H]1C[C@@H](O)c2cc(Cl)ccc2O1 (stereo partly drawn) [Compound 233, (2S,4R)-6-chloro-4-hydroxy-N-(3-{5-[cis-3-(trifluoromethoxy)cyclobutyl]-4,5-dihydro-1,2-oxazol-3-yl}bicyclo[1.1.1]pentan-1-yl)-3,4-dihydro-2H-1-benzopyran-2-carboxamide] | 500 to 2000
8 | O=C(NC12CC(c3cc([C@H]4C[C@@H](OC(F)(F)F)C4)on3)(C1)C2)[C@H]1C[C@@H](O)c2cc(Cl)ccc2O1 [Compound 234, (2R,4R)-6-chloro-4-hydroxy-N-{3-(5-[cis-3-(trifluoromethoxy)cyclobutyl]-1,2-oxazol-3-yl}bicyclo[1.1.1]pentan-1-yl)-3,4-dihydro-2H-1-benzopyran-2-carboxamide] | 10 to 50
9 | O=C(NC12CC(n3ncc4cc(Cl)ccc43)(C1)C2)[C@H]1C[C@@H](O)c2cc(Cl)ccc2O1 [Compound 235, (2R,4R)-6-chloro-N-[3-(5-chloro-1H-indazol-1-yl)bicyclo[1.1.1]pentan-1-yl]-4-hydroxy-3,4-dihydro-2H-1-benzopyran-2-carboxamide] | 50 to 250
10 | O=C(NC12CC(n3cc(-c4ccc(Cl)cc4)cn3)(C1)C2)[C@@H]1C[C@@H](O)c2cc(Cl)ccc2O1 [Compound 236, (2S,4R)-6-chloro-N-{3-[4-(4-chlorophenyl)-1H-pyrazol-1-yl]bicyclo[1.1.1]pentan-1-yl}-4-hydroxy-3,4-dihydro-2H-1-benzopyran-2-carboxamide] | < 10
11 | O=C(NC12CC(c3cnn(-c4ccc(Cl)c(F)c4)c3)(C1)C2)[C@H]1C[C@@H](O)c2cc(Cl)ccc2O1 [Compound 237, (2R,4R)-6-chloro-N-{3-[1-(4-chloro-3-fluorophenyl)-1H-pyrazol-4-yl]bicyclo[1.1.1]pentan-1-yl}-4-hydroxy-3,4-dihydro-2H-1-benzopyran-2-carboxamide] | < 10
12 | O=C(NC12CC(c3cnn(-c4ccc(Cl)c(F)c4)c3)(C1)C2)[C@@H]1C[C@@H](O)c2cc(Cl)ccc2O1 [Compound 238, (2S,4R)-6-chloro-N-{3-[1-(4-chloro-3-fluorophenyl)-1H-pyrazol-4-yl]bicyclo[1.1.1]pentan-1-yl}-4-hydroxy-3,4-dihydro-2H-1-benzopyran-2-carboxamide] | 10 to 50
13 | O=C(CO[C@H]1C[C@@H](OC(F)(F)F)C1)NC12CCC(NC(=O)[C@@H]3C[C@@H](O)c4cc(Cl)ccc4O3)(CC1)CC2 [Compound 239, (2S,4R)-6-chloro-4-hydroxy-N-[4-(2-{[cis-3-(trifluoromethoxy)cyclobutyl]oxy}acetamido)bicyclo[2.2.2]octan-1-yl]-3,4-dihydro-2H-1-benzopyran-2-carboxamide] | 10 to 50
14 | O=C(NC12CC(n3ccc(-c4ccc(Cl)cc4)c3)(C1)C2)[C@H]1C[C@@H](O)c2cc(Cl)ccc2O1 [Compound 240, (2R,4R)-6-chloro-N-{3-[3-(4-chlorophenyl)-1H-pyrrol-1-yl]bicyclo[1.1.1]pentan-1-yl}-4-hydroxy-3,4-dihydro-2H-1-benzopyran-2-carboxamide] | < 10
15 | O=C(NC12CC(n3ccc(-c4ccc(Cl)cc4)c3)(C1)C2)[C@@H]1C[C@@H](O)c2cc(Cl)ccc2O1 [Compound 241, (2S,4R)-6-chloro-N-{3-[3-(4-chlorophenyl)-1H-pyrrol-1-yl]bicyclo[1.1.1]pentan-1-yl}-4-hydroxy-3,4-dihydro-2H-1-benzopyran-2-carboxamide] | 50 to 250
16 | O=C(NC12CC(n3ccc(-c4ccc(Cl)c(F)c4)c3)(C1)C2)[C@H]1C[C@@H](O)c2cc(Cl)ccc2O1 [Compound 242, (2R,4R)-6-chloro-N-{3-[3-(4-chloro-3-fluorophenyl)-1H-pyrrol-1-yl]bicyclo[1.1.1]pentan-1-yl}-4-hydroxy-3,4-dihydro-2H-1-benzopyran-2-carboxamide] | < 10
17 | O=C(NC12CC(n3ccc(-c4ccc(Cl)c(F)c4)c3)(C1)C2)[C@@H]1C[C@@H](O)c2cc(Cl)ccc2O1 [Compound 243, (2S,4R)-6-chloro-N-{3-[3-(4-chloro-3-fluorophenyl)-1H-pyrrol-1-yl]bicyclo[1.1.1]pentan-1-yl}-4-hydroxy-3,4-dihydro-2H-1-benzopyran-2-carboxamide] | 50 to 250
18 | O=C(NC12CC(n3ccc(-c4ccc(C(F)(F)F)nc4)c3)(C1)C2)[C@H]1C[C@@H](O)c2cc(Cl)ccc2O1 [Compound 244, (2R,4R)-6-chloro-4-hydroxy-N-(3-{3-[6-(trifluoromethyl)pyridin-3-yl]-1H-pyrrol-1-yl}bicyclo[1.1.1]pentan-1-yl)-3,4-dihydro-2H-1-benzopyran-2-carboxamide] | < 10
19 | O=C(NC12CC(n3ccc(-c4ccc(C(F)(F)F)nc4)c3)(C1)C2)[C@@H]1C[C@@H](O)c2cc(Cl)ccc2O1 [Compound 245, (2S,4R)-6-chloro-4-hydroxy-N-(3-{3-[6-(trifluoromethyl)pyridin-3-yl]-1H-pyrrol-1-yl}bicyclo[1.1.1]pentan-1-yl)-3,4-dihydro-2H-1-benzopyran-2-carboxamide] | 50 to 250
20 | O=C(NC12CC(c3cc(-c4ccc(Cl)cc4)no3)(C1)C2)[C@H]1C[C@@H](O)c2cc(Cl)ccc2O1 [Compound 246, (2R,4R)-6-chloro-N-{3-[3-(4-chlorophenyl)-1,2-oxazol-5-yl]bicyclo[11.11]pentan-1-yl}-4-hydroxy-3,4-dihydro-2H-1-benzopyran-2-carboxamide] | 10 to 50
21 | O=C(NC12CC(c3cc(-c4ccc(Cl)cc4)no3)(C1)C2)[C@@H]1C[C@@H](O)c2cc(Cl)ccc2O1 [Compound 247, (2S,4R)-6-chloro-N-{3-[3-(4-chlorophenyl)-1,2-oxazol-5-yl]bicyclo[1.1.1]pentan-1-yl}-4-hydroxy-3,4-dihydro-2H-1-benzopyran-2-carboxamide] | 50 to 250
22 | O=C(NC12CC(c3cc(-c4ccc(Cl)c(F)c4)no3)(C1)C2)[C@H]1C[C@@H](O)c2cc(Cl)ccc2O1 [Compound 248, (2R,4R)-6-chloro-N-{3-[3-(4-chloro-3-fluorophenyl)-1,2-oxazol-5-yl]bicyclo[1.1.1]pentan-1-yl}-4-hydroxy-3,4-dihydro-2H-1-benzopyran-2-carboxamide] | 10 to 50
23 | O=C(NC12CC(c3cc(-c4ccc(Cl)c(F)c4)no3)(C1)C2)[C@@H]1C[C@@H](O)c2cc(Cl)ccc2O1 [Compound 249, (2S,4R)-6-chloro-N-{3-[3-(4-chloro-3-fluorophenyl)-1,2-oxazol-5-yl]bicyclo[11.11]pentan-1-yl}-4-hydroxy-3,4-dihydro-2H-1-benzopyran-2-carboxamide] | 50 to 250
24 | O=C(NC12CC(c3cc(-c4ccc(C(F)(F)F)nc4)no3)(C1)C2)[C@H]1C[C@@H](O)c2cc(Cl)ccc2O1 [Compound 250, (2R,4R)-6-chloro-4-hydroxy-N-(3-{3-[6-(trifluoromethyl)pyridin-3-yl]-1,2-oxazol-5-yl}bicyclo[1.1.1]pentan-1-yl)-3,4-dihydro-2H-1-benzopyran-2-carboxamide] | 50 to 250
25 | O=C(NC12CC(c3cc(-c4ccc(C(F)(F)F)nc4)no3)(C1)C2)[C@@H]1C[C@@H](O)c2cc(Cl)ccc2O1 [Compound 251, (2S,4R)-6-chloro-4-hydroxy-N-(3-{3-[6-(trifluoromethyl)pyridin-3-yl]-1,2-oxazol-5-yl}bicyclo[1.1.1]pentan-1-yl)-3,4-dihydro-2H-1-benzopyran-2-carboxamide] | > 2000
26 | O=C(NC12CC(c3ncc(-c4ccc(Cl)cc4)o3)(C1)C2)[C@H]1C[C@@H](O)c2cc(Cl)ccc2O1 [Compound 254, (2R,4R)-6-chloro-N-{3-[5-(4-chlorophenyl)-1,3-oxazol-2-yl]bicyclo[1.1.1]pentan-1-yl}-4-hydroxy-3,4-dihydro-2H-1-benzopyran-2-carboxamide] | < 10
